Laboratory results taken from PubChem BioAssay (NCI).
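Where inhibition never reached the appropriate level, the endpoint shown equals the highest concentration tested. Otherwise, values were interpolated linearly from a five-concentration, 48-hour dose response in 96-well plates. Here, GI50 denotes the concentration required for 50% inhibition of growth. TGI: concentration producing complete growth inhibition.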

Key:
Test in all cases: NCI-60 cell line screen, 48 h
786-0 renal = test system: 786-0 renal
A498 renal = test system: A498 renal
A549 NSCLC = test system: A549 NSCLC
ACHN renal = test system: ACHN renal
CAKI-1 renal = test system: CAKI-1 renal
CCRF-CEM leukemia = test system: CCRF-CEM leukemia
COLO 205 colon = test system: COLO 205 colon
DU-145 prostate = test system: DU-145 prostate
EKVX NSCLC = test system: EKVX NSCLC
HCC-2998 colon = test system: HCC-2998 colon
HCT-116 colon = test system: HCT-116 colon
HCT-15 colon = test system: HCT-15 colon
HOP-62 NSCLC = test system: HOP-62 NSCLC
HOP-92 NSCLC = test system: HOP-92 NSCLC
HS 578T breast = test system: HS 578T breast
HT29 colon = test system: HT29 colon
IGROV1 ovarian = test system: IGROV1 ovarian
K-562 leukemia = test system: K-562 leukemia
KM12 colon = test system: KM12 colon
LOX IMVI melanoma = test system: LOX IMVI melanoma
M14 melanoma = test system: M14 melanoma
MALME-3M melanoma = test system: MALME-3M melanoma
MCF7 breast = test system: MCF7 breast
MDA-MB-231 breast = test system: MDA-MB-231 breast
MDA-MB-435 = test system: MDA-MB-435
MOLT-4 leukemia = test system: MOLT-4 leukemia
NCI-H226 lung = test system: NCI-H226 lung
NCI-H23 lung = test system: NCI-H23 lung
NCI-H460 lung = test system: NCI-H460 lung
NCI-H522 lung = test system: NCI-H522 lung
NCI/ADR-RES ovarian = test system: NCI/ADR-RES ovarian
OVCAR-3 ovarian = test system: OVCAR-3 ovarian
OVCAR-4 ovarian = test system: OVCAR-4 ovarian
OVCAR-5 ovarian = test system: OVCAR-5 ovarian
OVCAR-8 ovarian = test system: OVCAR-8 ovarian
PC-3 prostate = test system: PC-3 prostate
RPMI-8226 leukemia = test system: RPMI-8226 leukemia
RXF 393 renal = test system: RXF 393 renal
SF-268 CNS = test system: SF-268 CNS
SF-295 CNS = test system: SF-295 CNS
SF-539 CNS = test system: SF-539 CNS
SK-MEL-2 melanoma = test system: SK-MEL-2 melanoma
SK-MEL-28 melanoma = test system: SK-MEL-28 melanoma
SK-MEL-5 melanoma = test system: SK-MEL-5 melanoma
SK-OV-3 ovarian = test system: SK-OV-3 ovarian
SN12C renal = test system: SN12C renal
SNB-19 CNS = test system: SNB-19 CNS
SNB-75 CNS = test system: SNB-75 CNS
SR leukemia = test system: SR leukemia
SW-620 colon = test system: SW-620 colon
T-47D breast = test system: T-47D breast
TK-10 renal = test system: TK-10 renal
U251 CNS = test system: U251 CNS
UACC-257 melanoma = test system: UACC-257 melanoma
UACC-62 melanoma = test system: UACC-62 melanoma
UO-31 renal = test system: UO-31 renal
BT-549 breast = test system: BT-549 breast
HL-60(TB) leukemia = test system: HL-60(TB) leukemia

SMILES: O=C1C(Cl)=C(Nc2cccc(O)c2)C(=O)N1Cc1ccc(Cl)cc1Cl
- GI50 (786-0 renal): 1.94 µM
- TGI (786-0 renal): 18.8 µM
- GI50 (A498 renal): 1.57 µM
- TGI (A498 renal): 10.2 µM
- GI50 (A549 NSCLC): 8.33 µM
- TGI (A549 NSCLC): 28.1 µM
- GI50 (ACHN renal): 5.59 µM
- TGI (ACHN renal): 17.7 µM
- GI50 (CAKI-1 renal): 13.4 µM
- TGI (CAKI-1 renal): 26.7 µM
- GI50 (CCRF-CEM leukemia): 2.82 µM
- TGI (CCRF-CEM leukemia): 52.7 µM
- GI50 (COLO 205 colon): 3.11 µM
- TGI (COLO 205 colon): 30.2 µM
- GI50 (DU-145 prostate): 11.3 µM
- TGI (DU-145 prostate): 24.2 µM
- GI50 (EKVX NSCLC): 10 µM
- TGI (EKVX NSCLC): 26.6 µM
- GI50 (HCC-2998 colon): 3.55 µM
- TGI (HCC-2998 colon): 16.4 µM
- GI50 (HCT-116 colon): 2.01 µM
- TGI (HCT-116 colon): 12.4 µM
- GI50 (HCT-15 colon): 7.45 µM
- TGI (HCT-15 colon): 22.6 µM
- GI50 (HOP-62 NSCLC): 14.4 µM
- TGI (HOP-62 NSCLC): 30.5 µM
- GI50 (HOP-92 NSCLC): 12.2 µM
- TGI (HOP-92 NSCLC): 26.9 µM
- GI50 (HS 578T breast): 1.66 µM
- TGI (HS 578T breast): 21.8 µM
- GI50 (HT29 colon): 1.29 µM
- TGI (HT29 colon): 90.3 µM
- GI50 (IGROV1 ovarian): 1.17 µM
- TGI (IGROV1 ovarian): 13.8 µM
- GI50 (K-562 leukemia): 4.81 µM
- TGI (K-562 leukemia): 29.7 µM
- GI50 (KM12 colon): 10.1 µM
- TGI (KM12 colon): 25.2 µM
- GI50 (LOX IMVI melanoma): 4.06 µM
- TGI (LOX IMVI melanoma): 15.5 µM
- GI50 (M14 melanoma): 8.18 µM
- TGI (M14 melanoma): 22.8 µM
- GI50 (MALME-3M melanoma): 1.18 µM
- TGI (MALME-3M melanoma): 14.9 µM
- GI50 (MCF7 breast): 10.9 µM
- TGI (MCF7 breast): 30.7 µM
- GI50 (MDA-MB-231 breast): 1.17 µM
- TGI (MDA-MB-231 breast): 11 µM
- GI50 (MDA-MB-435): 6.72 µM
- TGI (MDA-MB-435): 19.5 µM
- GI50 (MOLT-4 leukemia): 3.22 µM
- TGI (MOLT-4 leukemia): 19.2 µM
- GI50 (NCI-H226 lung): 1.11 µM
- TGI (NCI-H226 lung): 20.4 µM
- GI50 (NCI-H23 lung): 3.78 µM
- TGI (NCI-H23 lung): 17.8 µM
- GI50 (NCI-H460 lung): 11.4 µM
- TGI (NCI-H460 lung): 29.7 µM
- GI50 (NCI-H522 lung): 1.43 µM
- TGI (NCI-H522 lung): 9.95 µM
- GI50 (NCI/ADR-RES ovarian): 2 µM
- TGI (NCI/ADR-RES ovarian): 26.6 µM
- GI50 (OVCAR-3 ovarian): 12.1 µM
- TGI (OVCAR-3 ovarian): 26.4 µM
- GI50 (OVCAR-4 ovarian): 2.9 µM
- TGI (OVCAR-4 ovarian): 15 µM
- GI50 (OVCAR-5 ovarian): 11.7 µM
- TGI (OVCAR-5 ovarian): 29.2 µM
- GI50 (OVCAR-8 ovarian): 1.94 µM
- TGI (OVCAR-8 ovarian): 27.1 µM
- GI50 (PC-3 prostate): 4.88 µM
- TGI (PC-3 prostate): 19.6 µM
- GI50 (RPMI-8226 leukemia): 1.08 µM
- TGI (RPMI-8226 leukemia): 14 µM
- GI50 (RXF 393 renal): 1.06 µM
- TGI (RXF 393 renal): 11.1 µM
- GI50 (SF-268 CNS): 6.09 µM
- TGI (SF-268 CNS): 21.9 µM
- GI50 (SF-295 CNS): 11.3 µM
- TGI (SF-295 CNS): 25.1 µM
- GI50 (SF-539 CNS): 0.561 µM
- TGI (SF-539 CNS): 13.8 µM
- GI50 (SK-MEL-2 melanoma): 1.25 µM
- TGI (SK-MEL-2 melanoma): 11.1 µM
- GI50 (SK-MEL-28 melanoma): 3.89 µM
- TGI (SK-MEL-28 melanoma): 18.3 µM
- GI50 (SK-MEL-5 melanoma): 0.84 µM
- TGI (SK-MEL-5 melanoma): 5.64 µM
- GI50 (SK-OV-3 ovarian): 9.43 µM
- TGI (SK-OV-3 ovarian): 23.7 µM
- GI50 (SN12C renal): 2.67 µM
- TGI (SN12C renal): 15.1 µM
- GI50 (SNB-19 CNS): 3.39 µM
- TGI (SNB-19 CNS): 33.8 µM
- GI50 (SNB-75 CNS): 6.1 µM
- TGI (SNB-75 CNS): 20.6 µM
- GI50 (SR leukemia): 1.88 µM
- TGI (SR leukemia): 11.9 µM
- GI50 (SW-620 colon): 0.565 µM
- TGI (SW-620 colon): 15.7 µM
- GI50 (T-47D breast): 19.1 µM
- TGI (T-47D breast): > 100 µM
- GI50 (TK-10 renal): 13.6 µM
- TGI (TK-10 renal): 28.4 µM
- GI50 (U251 CNS): 4.31 µM
- TGI (U251 CNS): 15.5 µM
- GI50 (UACC-257 melanoma): 8.76 µM
- TGI (UACC-257 melanoma): 21.5 µM
- GI50 (UACC-62 melanoma): 3.49 µM
- TGI (UACC-62 melanoma): 14.7 µM
- GI50 (UO-31 renal): 1.87 µM
- TGI (UO-31 renal): 14.5 µM

SMILES: N=C(N)c1ccc(-c2ccc(-c3ccc(Cl)c(Cl)c3)s2)nc1
- GI50 (BT-549 breast): 3.18 µM
- TGI (BT-549 breast): 31.6 µM
- GI50 (HL-60(TB) leukemia): 1.89 µM
- TGI (HL-60(TB) leukemia): 4.39 µM
- GI50 (NCI-H226 lung): 1.94 µM
- TGI (NCI-H226 lung): 4.63 µM
- GI50 (SK-MEL-2 melanoma): 3.43 µM
- TGI (SK-MEL-2 melanoma): 15.2 µM
- GI50 (SK-OV-3 ovarian): 8.06 µM
- TGI (SK-OV-3 ovarian): 31.8 µM
- GI50 (UACC-257 melanoma): 2.14 µM
- TGI (UACC-257 melanoma): 4.77 µM
